From patent publication US8093265B2, “Bicycloheteroaryl compounds as P2X7 modulators and uses thereof” (Renovis, Inc., priority 2007, dated 2012)

What was measured:
[1] = Plasma protein binding by equilibrium dialysis, human plasma; assay type: in vitro ADME; conditions: pH 7.4, equilibrium dialysis 16 hr at 37° C., % Bound
Description: The plasma protein binding of compounds of invention is measured in human and rat plasma, respectively. A stock solution of the tested compound is prepared in 1 mg/mL in DMSO solution. The stock solution is spiked into the blank plasma to get a final compound concentration at 1 μg/mL for testing. Equilibrium dialysis (The equilibrium dialyzer-96TM MWCO 5K Daltons, Harvard Apparatus) method is used for the testing purpose.
The compound spiked plasma (at […]) and phosphate buffer (0.1 M, pH 7.4), 200 μl each, are added into the opposite sides of the membrane in a 96-well equilibrium dialyzer, respectively. The dialyzer plate is covered and incubated overnight (16 hr) at 37° C. in the 8-plate rotor incubator (Big Shot III 8-plate rotor, Harvard Apparatus). Aliquots (100 μL) are taken from the plasma and the buffer compartments, respectively. The matrix effects are eliminated by adding the same volume of blank plasma into the samples from buffer compartments and adding the same volume of phosphate buffer into the samples from plasma compartments. The samples are extracted by using the regular (3:1) protein precipitation extraction procedure (acetonitrile with internal standard). The supernatants are taken for LC/MS/MS analysis. The percentage of plasma-protein binding can be calculated by using the following method: % Free=[Free Drug/Total Drug]*100=[(Peak Area)buffer/(Peak Area)plasma]*100 % Bound=100−% Free.
For the purpose of Table 4, the plasma protein binding of each compound is expressed as follows: […]

P2X7 receptor = target: T1, P2X7 receptor (Homo sapiens, UniProt Q99572); assay: IL-1β release assay in differentiated THP-1 cells (Example 9); assay type: cell-based; conditions: THP-1 cells differentiated with LPS and IFN-γ; 30 min pretreatment; BzATP 250 uM; IL-1β by ELISA
T1 construct: host or cells: THP-1 cells differentiated with LPS and IFN-γ
T1 sequence (Q99572 1-595): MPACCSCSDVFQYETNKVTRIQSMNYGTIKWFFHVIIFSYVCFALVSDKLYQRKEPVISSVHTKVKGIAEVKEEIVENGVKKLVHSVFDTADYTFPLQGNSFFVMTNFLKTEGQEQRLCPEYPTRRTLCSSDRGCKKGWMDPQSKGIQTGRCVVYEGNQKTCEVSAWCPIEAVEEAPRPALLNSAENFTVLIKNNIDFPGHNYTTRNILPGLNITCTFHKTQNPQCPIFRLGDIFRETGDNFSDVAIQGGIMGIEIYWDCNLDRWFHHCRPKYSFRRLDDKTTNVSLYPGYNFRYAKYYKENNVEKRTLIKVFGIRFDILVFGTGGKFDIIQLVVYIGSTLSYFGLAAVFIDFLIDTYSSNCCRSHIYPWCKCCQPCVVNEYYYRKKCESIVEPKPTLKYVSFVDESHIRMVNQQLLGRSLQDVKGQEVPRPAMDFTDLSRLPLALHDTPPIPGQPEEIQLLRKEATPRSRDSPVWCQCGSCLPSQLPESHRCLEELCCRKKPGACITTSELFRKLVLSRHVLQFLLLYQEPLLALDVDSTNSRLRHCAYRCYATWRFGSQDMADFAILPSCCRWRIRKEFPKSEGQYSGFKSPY
How it was run: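 THP-1 cells differentiated 16 h with LPS and IFN-γ (100 ng/mL each), re-primed 2 h with LPS, then pretreated 30 min with compound before 250 uM BzATP for 45 min. Supernatant IL-1β measured by ELISA; background-adjusted % inhibition fitted to a four-parameter logistic for IC50.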

[2] = Pharmacokinetic evaluation following intravenous and oral administration in rats; assay type: in vivo, rat; conditions: male Sprague-Dawley rats; PO 1 to 5 mg/kg vs IV 1 mg/kg; AUCinf(PO)/AUCinf(IV) dose-normalized
Description: Pharmacokinetic Evaluation of Compounds Following Intravenous and Oral Administration in Rats.
Male Sprague-Dawley rats are acclimated for at least 24 hours prior to experiment initiation. During the acclimation period, all animals receive food and water ad libitum. However, food but not water is removed from the animals' cages at least 12 hours before initiation of the experiment. During the first 3 hours of experimentation, the animals receive only water ad libitum. At least three animals each are tested for intravenous and oral dosage. For intravenous formulation, compounds are dissolved (0.25 to 1 mg/mL) in a mixture of 3% dimethyl sulfoxide, 40% PEG 400 and the rest percentage of 40% Captisol in water (w/v). The animals are weighed before dosing. The determined body weight is used to calculate the dose volume for each animal. Dose volume (mL/kg)=1 mg/kg/formulation concentration (mg/mL)
In instances where the formulation concentrations are less than 0.5 mg/mL, the dosing volume is about 2 mL/kg.
For oral formulation, compounds of this invention are suspended (0.5 to 0.75 mg/mL) in a mixture of 5% of 10% Tween 80 in water (v/v) and 95% of 0.5% methyl cellulose in water (w/v). PO rats are typically dosed through oral gavage following the same dose volume formula as IV to achieve a dose level of 1 to 5 mg/kg. For IV dosing, blood samples are collected (using a pre-heparinized syringe) via the jugular vein catheter at 2, 5, 15, 30, 60, 120, 180, 300, 480, and 1440 minutes post dosing. For PO dosing blood samples are collected (using a pre-heparinized syringe) via the jugular vein catheter before dosing and at 5, 15, 30, 60, 120, 180, 300, 480, and 1440 minutes post dosing. About 250 uL of blood is obtained at each time point from the animal. Equal volumes of 0.9% normal saline are replaced to prevent dehydration. The whole blood samples are maintained on ice until centrifugation. Blood samples are then centrifuged at 14,000 rpm for 10 minutes at 4° C., and the upper plasma layer is then transferred into a clean vial and stored at −80° C. The resulting plasma samples are then analyzed by liquid chromatography-tandem mass spectrometry. Following the measurement of plasma samples and dosing solutions, plasma concentration-time curve is plotted. Plasma exposure is calculated as the area under the concentration-time curve extrapolated to time infinite (AUCinf). The AUCinf is averaged and the oral bioavailability (% F) for individual animal is calculated as: • AUCinf(PO)/AUCinf(IV), normalized to their respective dose levels.
The % F can be reported as the mean % F of all animals dosed orally with the compound of the invention at the specified level.
For the purpose of Table 3, the oral bioavailability of each compound is expressed as follows: […]

[3] = Half-life in human liver microsomes (HLM); assay type: in vitro ADME; conditions: pH 7.4; human liver microsomes 0.78 mg/mL, 1 μM compound, NADPH, 37° C.

fraction unbound at 16 hr, 1 μg/mL [1]: 0.1 to 0.24
IC50 (P2X7 receptor): 5 nM
Oral Bioavailability F (%) [2]: +++ (51-75% F)
half-life at 1 μM [3]: 1.6 h
SMILES: Cc1ccc2c(=O)n([C@H](C)CO)ccc2c1NC(=O)Cc1ccc(Cl)c(F)c1 [Compound 26, 2-(4-Chloro-3-fluoro-phenyl)-N-[2-((R)-2-hydroxy-1-methyl-ethyl)-6-methyl-1-oxo-1,2-dihydro-isoquinolin-5-yl]-acetamide]
